Experimental data: patent USRE37781E1, “Substituted cyclic carbonyls and derivatives thereof useful as retroviral protease inhibitors” (DuPont Pharmaceuticals Company, priority 1991, dated 2002)
≈ marks a conversion by molar mass, not a printed value. Read-outs that look alike come from different tables or passages of the source.

Experiments:
[1] = biological target: T1, HIV protease (Human immunodeficiency virus type 1 group M subtype B, UniProt P04585); experiment: biochemical; parameters: species or system HIV-1
T1 construct: plasmid containing HIV protease under the control of an inducible T7 promoter; made in house; host or cells: E. coli (inclusion bodies, T7 promoter)
Experimental: HIV Protease Inhibition Assay—Spectroscopic Method
Inclusion bodies were solubilized in 8M urea, 50 mM tris pH 8.0. Protease activity was recovered by dilution 20-fold into buffer containing 50 mM sodium acetate pH 5.5, 1 mM EDTA, 10% glycerol and 5% ethylene glycol. Enzyme was used at a final concentration of 1.0-10 ug/ml.
Stock solutions of 10 mM were prepared in DMSO.
All further dilutions were done in DMSO.

[2] = system: HIV-1 (RF) in MT-2 cells; experiment: microbe, parasite or virus in culture; format: cell-based; conditions: read-out: IC90
Outline: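 HIV-1 laboratory strains (RF, MN, IIIB) grown in H9 cells in RPMI 1640 with 5% FCS; infections in MT-2 cells. Viral RNA quantified by hybridization with biotinylated gag/pol capture probes on streptavidin plates and alkaline phosphatase-conjugated reporter probes; BH10 gag-pol in vitro transcripts serve as RNA standards.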

[3] = Human immunodeficiency virus 1, MT2, Table 1c
[4] = second table headed Table 2A, read-out: Ki
[5] = Human immunodeficiency virus 1, MT2, Table 2A
[6] = Human immunodeficiency virus 1, MT2, second table headed Table 2A
[7] = Table 1d, upper part, read-out: Ki
[8] = Human immunodeficiency virus 1, MT2, 24 h, Table 1d, upper part
[9] = Human immunodeficiency virus 1, MT2, Table 1e

Compound | Ki [1, 7] | IC90 [2, 8] | other results
N#CN=C1N(Cc2ccc(C#N)cc2)C(Cc2ccccc2)C(O)C(O)C(Cc2ccccc2)N1Cc1ccc(C#N)cc1 (stereo not drawn) [Example 1CG] |  |  | Ki ([1]; Ki): 10 to 1000 nM; IC90 [2, 3]: < 10 µg/mL
N#CN=C1N(Cc2cccc(C=O)c2)C(Cc2ccccc2)C(O)C(O)C(Cc2ccccc2)N1Cc1cccc(C=O)c1 (stereo not drawn) [Example 1CP] |  |  | Ki ([1]; Ki): < 10 nM; IC90 [2, 3]: < 10 µg/mL
CC(C)C(NCCN1C(=O)N(CCNC(C(=O)OCc2ccccc2)C(C)C)C(Cc2ccccc2)C(O)C(O)C1Cc1ccccc1)C(=O)OCc1ccccc1 (stereo not drawn) [Example 1U] |  |  | Ki ([1]; Table 1a, read-out: Ki): > 1000 nM
CCCN1C(=O)N(CCC)C(Cc2ccccc2)C(O)C(O)C1Cc1ccccc1 (stereo not drawn) [Example 1V] |  |  | Ki ([1]; Ki): < 10 nM
CC(C)=CCN1C(=O)N(C)C(Cc2ccccc2)C(O)C(O)C1Cc1ccccc1 (stereo not drawn) [Example 2D] |  |  | Ki ([1]; Table 2A, read-out: Ki): 10 to 1000 nM; Ki [1, 4]: 10 to 1000 nM
O=C1N(Cc2ccc(F)cc2)C(Cc2ccccc2)C(O)C(O)C(Cc2ccccc2)N1Cc1ccc(F)cc1 (stereo not drawn) [Example 2E] |  |  | Ki ([1]; Table 2A, read-out: Ki): < 10 nM; Ki [1, 4]: < 10 nM; IC90 [2, 5]: < 10 µg/mL; IC90 [2, 6]: < 10 µg/mL
O=C1N(Cc2ccccc2)C(Cc2ccccc2)C(O)C(O)C(Cc2ccccc2)N1CC1CC1 (stereo not drawn) [Example 2F] |  |  | Ki ([1]; Table 2A, read-out: Ki): < 10 nM; Ki [1, 4]: < 10 nM; IC90 [2, 5]: < 10 µg/mL; IC90 [2, 6]: < 10 µg/mL
C=CCN1C(=O)N(CC=C)C(Cc2ccccc2)C(OC(C)=O)C(O)C1Cc1ccccc1 (stereo not drawn) [Example 7A] | > 1000 nM | < 10 µg/mL | 
C=CCN1C(=O)N(CC=C)C(Cc2ccccc2)C2OS(=O)OC2C1Cc1ccccc1 (stereo not drawn) [Example 7C] | < 10 nM | < 10 µg/mL | 
C=CCN1C(=O)N(CCCC)C(Cc2ccccc2)C2OS(=O)OC2C1Cc1ccccc1 (stereo not drawn) [Example 7D] | < 10 nM | 10 to 100 µg/mL (≈ 21.3 to 213 µM) | 
C=CCN1C(=O)N(CCCC)C(Cc2ccccc2)C2OC(=O)OC2C1Cc1ccccc1 (stereo not drawn) [Example 7E] |  | < 10 µg/mL | Ki ([1]; Ki): 10 to 1000 nM
O=C1N(CC2CC2)C(Cc2ccccc2)C2OS(=O)OC2C(Cc2ccccc2)N1CC1CC1 (stereo not drawn) [Example 7F] | < 10 nM | < 10 µg/mL | 
O=C1OC2C(O1)C(Cc1ccccc1)N(CC1CC1)C(=O)N(CC1CC1)C2Cc1ccccc1 (stereo not drawn) [Example 7G] |  | < 10 µg/mL | Ki ([1]; Ki): 10 to 1000 nM
O=C1N(CC2CC2)C(Cc2ccccc2)C2OC(=S)OC2C(Cc2ccccc2)N1CC1CC1 (stereo not drawn) [Example 7I] | 10 to 1000 nM | < 10 µg/mL | 
CC(=O)OC1C(OC(C)=O)C(Cc2ccccc2)N(Cc2ccc3ccccc3c2)C(=O)N(Cc2ccc3ccccc3c2)C1Cc1ccccc1 (stereo not drawn) [Example 7J] | 10 to 1000 nM | > 100 µg/mL | 
CC(=O)OC1C(O)C(Cc2ccccc2)N(Cc2ccc3ccccc3c2)C(=O)N(Cc2ccc3ccccc3c2)C1Cc1ccccc1 (stereo not drawn) [Example 7K] | 10 to 1000 nM | > 100 µg/mL | 
O=C1OC2C(O1)C(Cc1ccccc1)N(Cc1ccc3ccccc3c1)C(=O)N(Cc1ccc3ccccc3c1)C2Cc1ccccc1 (stereo not drawn) [Example 7L] |  | > 100 µg/mL | Ki ([1]; Ki): 10 to 1000 nM
O=C1N(Cc2ccc3ccccc3c2)C(Cc2ccccc2)C2OS(=O)OC2C(Cc2ccccc2)N1Cc1ccc2ccccc2c1 (stereo not drawn) [Example 7M] | < 10 nM | < 10 µg/mL | 
O=C1N(Cc2ccc3ccccc3c2)C(Cc2ccccc2)C2OC(=S)OC2C(Cc2ccccc2)N1Cc1ccc2ccccc2c1 (stereo not drawn) [Example 7N] | > 1000 nM | > 100 µg/mL | 
O=C1OC2C(OC1=O)C(Cc1ccccc1)N(Cc1ccc3ccccc3c1)C(=O)N(Cc1ccc3ccccc3c1)C2Cc1ccccc1 (stereo not drawn) [Example 7P] | < 10 nM | < 10 µg/mL | 
CC1(C)OC2C(O1)C(Cc1ccccc1)N(Cc1ccc3ccccc3c1)C(=O)N(Cc1ccc3ccccc3c1)C2Cc1ccccc1 (stereo not drawn) [Example 7R] | > 1000 nM | > 100 µg/mL | 
CCCC1(OC)OC2C(O1)C(Cc1ccccc1)N(Cc1ccc3ccccc3c1)C(=O)N(Cc1ccc3ccccc3c1)C2Cc1ccccc1 (stereo not drawn) [Example 7S] | > 1000 nM | > 50 µg/mL | 
O=C1N(Cc2ccc3ccccc3c2)[C@H](Cc2ccccc2)C[C@@H](O)[C@@H](Cc2ccccc2)N1Cc1ccc2ccccc2c1 [Example 7T] | < 10 nM | > 100 µg/mL | 
O=C1N(CC2CC2)[C@H](Cc2ccccc2)C[C@@H](O)[C@@H](Cc2ccccc2)N1CC1CC1 [Example 7U] | < 10 nM | < 10 µg/mL | 
C=CCN1C(=O)N(CC=C)[C@H](Cc2ccccc2)[C@H](O)C1C(F)Cc1ccccc1 (stereo partly drawn) [Example 7W] |  |  | Ki ([1]; Table 1e, read-out: Ki): 10 to 1000 nM; IC90 [2, 9]: 10 to 100 µg/mL (≈ 24.5 to 245 µM)
[N-]=[N+]=NC(Cc1ccccc1)C1C(O)C(Cc2ccccc2)N(Cc2ccc3ccccc3c2)C(=O)N1Cc1ccc2ccccc2c1 (stereo not drawn) [Example 7Y] |  |  | Ki ([1]; Table 1e, read-out: Ki): 10 to 1000 nM; IC90 [2, 9]: > 100 µg/mL
